Laboratory results from US8013006B2.
pIC50: −log10 of the molar value.

Columns and labels:
[1] = system: HCV replicon; assay: microbe, parasite or virus in culture; format: cell-based; details: Hepatitis C virus, 48 h, read-out: Replicon IC5Os

Row | Compound | pIC50 [1] | melting point [°C]
1 | CCOc1ccc2c(C#N)c(-c3ccc(NS(=O)(=O)CC)cc3)n(CC)c2c1 [Compound 416] | > 6.30 | 173 to 175
2 | CCCn1c(-c2ccc(NS(=O)(=O)CC)cc2)c(C#N)c2ccc(OCC)cc21 [Compound 418] | > 6.30 | 183 to 184
3 | CCn1c(-c2ccc(NC(C)=O)cc2)c(C#N)c2ccc(C(F)(F)F)cc21 [Compound 420] | 5.70 to 6.30 | 241 to 243
4 | CCC(=O)Nc1ccc(-c2c(C#N)c3ccc(C(F)(F)F)cc3n2CC)cc1 [Compound 422] | 5.70 to 6.30 | 259 to 261
5 | CCn1c(-c2ccc(S(=O)(=O)NC)cc2)c(C#N)c2cc(Cl)ccc21 [Compound 430] | 5.70 to 6.30 | 180 to 186
6 | CCn1c(-c2ccc(N/C(C)=C/C#N)cc2)c(C#N)c2ccc(OC)cc21 [Compound 456] | 5.70 to 6.30 | 157 to 159
7 | CCn1c(-c2ccc(S(N)(=O)=O)cc2)c(C#N)c2cc(-c3cccc(OC)c3)ccc21 [Compound 461] | > 6.30 | 200 to 205
8 | CCn1c(-c2ccc(S(=O)(=O)NC)cc2)c(C#N)c2cc(-c3cccc(OC)c3)ccc21 [Compound 462] | > 6.30 | 135 to 140
9 | CCOc1ccc2c(C#N)c(-c3ccc(NS(=O)(=O)CC)cc3)n(CC(C)C)c2c1 [Compound 470] | > 6.30 | 178 to 180
10 | CCOc1ccc2c(C#N)c(-c3ccc(NS(C)(=O)=O)cc3)n(CC(C)C)c2c1 [Compound 471] | > 6.30 | 154 to 156
11 | CCOc1ccc2c(C#N)c(-c3ccc(NS(C)(=O)=O)cc3)n(C3CCC3)c2c1 [Compound 472] | > 6.30 | 215 to 217
12 | CCOc1ccc2c(C#N)c(-c3ccc(NS(=O)(=O)CC)cc3)n(C3CCC3)c2c1 [Compound 473] | > 6.30 | 189 to 191
13 | CCn1c(-c2ccc(NS(C)(=O)=O)cc2)c(C#N)c2ccc(OCCCl)cc21 [Compound 477] | > 6.30 | 194 to 195
14 | CCn1c(-c2ccc(NS(C)(=O)=O)cc2)c(C#N)c2ccc(OCCN3CCSCC3)cc21 [Compound 480] | > 6.30 | 207 to 208
15 | CCCS(=O)(=O)Nc1ccc(-c2c(C#N)c3ccc(OCCCl)cc3n2CC)cc1 [Compound 495] | 5.70 to 6.30 | 126 to 128
16 | CCn1c(-c2ccc(NS(C)(=O)=O)cc2)c(C#N)c2ccc(OCCN(C)C)cc21 [Compound 498] | 5.70 to 6.30 | 192 to 194

Row | Compound | pIC50 [1] | melting point [°C]
17 | CCn1c(-c2ccc(NS(=O)(=O)CC)cc2)cc2ccc(OC(F)F)cc21 [Compound 516, ethanesulfonic acid [4-(6-difluoromethoxy-1-ethyl-1H-iodo-2-yl)-phenyl]-amide] | 5.70 to 6.30 | 155 to 156
18 | Cn1c(-c2ccc(NS(C)(=O)=O)cc2)c(C#N)c2ccc(OC(F)F)cc21 [Compound 518] | 5.70 to 6.30 | 197 to 199
19 | CCn1c(-c2ccc(NS(=O)(=O)CC)cc2)c(C#N)c2ccc(OC(F)F)cc21 [Compound 520] | > 6.30 | 175 to 177
20 | CCCn1c(-c2ccc(NS(C)(=O)=O)cc2)c(C#N)c2ccc(OC(F)F)cc21 [Compound 521] | > 6.30 | 184 to 186
21 | CC(C)n1c(-c2ccc(NS(C)(=O)=O)cc2)c(C#N)c2ccc(OC(F)F)cc21 [Compound 523] | > 6.30 | 190 to 192
22 | CCn1c(-c2cccc(NS(=O)(=O)NC(C)C)c2)c(C#N)c2ccc(OC)cc21 [Compound 542] | 5.70 to 6.30 | 186 to 188
23 | CCn1c(-c2ccc(N)cc2)c(C#N)c2ccc(OCCF)cc21 [Compound 543] | 5.70 to 6.30 | 197 to 200
24 | CCn1c(-c2ccc(NC(=O)C3CC3)cc2)c(C#N)c2ccc(OCCF)cc21 [Compound 544] | > 6.30 | 263 to 265
25 | CCn1c(-c2ccc(NC(=O)OC)cc2)c(C#N)c2ccc(OCCF)cc21 [Compound 545] | 5.70 to 6.30 | 203 to 205
26 | CCOC(=O)Nc1ccc(-c2c(C#N)c3ccc(OCCF)cc3n2CC)cc1 [Compound 546] | > 6.30 | 208 to 210
27 | CCn1c(-c2ccc(NS(C)(=O)=O)cc2)c(C#N)c2ccc(OCCF)cc21 [Compound 548] | 5.70 to 6.30 | 171 to 174
28 | CCn1c(-c2ccc(NS(=O)(=O)CC)cc2)c(C#N)c2ccc(OCCF)cc21 [Compound 549] | > 6.30 | 150 to 153
29 | CCCS(=O)(=O)Nc1ccc(-c2c(C#N)c3ccc(OCCF)cc3n2CC)cc1 [Compound 550] | 5.70 to 6.30 | 183 to 185
30 | CCn1c(-c2ccc(NS(=O)(=O)CCCCl)cc2)c(C#N)c2ccc(OCCF)cc21 [Compound 551] | 5.70 to 6.30 | 187 to 190
31 | CCn1c(-c2ccc(NS(=O)(=O)C3CC3)cc2)c(C#N)c2ccc(OCCF)cc21 [Compound 552] | > 6.30 | 185 to 188
